From the METLIN SMRT retention time set (Domingo-Almenara et al. 2019) come the findings set out here.

This series in a line: gradient 5% acetonitrile 3 min, to 50% in 2 min, to 85% in 15 min, held 3 min, 100 µL/min. To be noted: column: Zorbax Extend-C18 2.1 x 50 mm; eluents: water / acetonitrile, 0.1% formic acid. The method, boiled down: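 Pure standards were run in mixtures of ~100 molecules by HPLC coupled to a quadrupole time-of-flight mass spectrometer. The column was a Zorbax Extend-C18 (2.1 × 50 mm, 1.8 μm) at 100 μL/min, with water and acetonitrile each containing 0.1% formic acid, in positive and negative ionization mode. Dead and dwell volumes were 40 μL and 900 μL. Retention time was taken from computationally picked adduct peaks, each manually inspected, with data collected over 3 months.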
`Cc1ccc(-c2nnc(-c3ccccc3)o2)cc1S(=O)(=O)N1CCC(C)CC1` returned an RP-LC retention time of 1210 s.
In the case of `Nc1nc(N2CCN(C3CCCCC3)CC2)ncc1C(=O)NCc1ccccc1` it was 627 s; in that of `O=C(Nc1ccc2c(c1)OCO2)c1noc2c1CCCC2`, 883 s.
Next, `CCn1ccc2sc(C)c(C(=O)N3CCN(c4ccc(OC)cc4)CC3)c2c1=O`: 714 s.
In the case of `CN1C(=O)NC2(CCN(C(=O)C3c4ccccc4Oc4ccccc43)CC2)C1=O` it was 705 s.
The compound `CCc1ccc(S(=O)(=O)Nc2cc(-c3cn4ccc(C)cc4n3)ccc2C)cc1` gave an RP-LC retention time of 745 s.
In turn, `CCn1cc(S(=O)(=O)N2CC(F)(F)C[C@H]2COc2cccnc2)cn1` displayed an RP-LC retention time of 636 s.
Next, `Cc1ccc2c(=O)c(C(=O)N3CCCC3)cn(CC(=O)NCc3ccc4c(c3)OCO4)c2n1`: 625 s; `O=C(NC1CC1)C1CCN(c2ccc(=O)n(-c3ccc(F)cc3)n2)CC1`: 671 s; `Cc1ccc2c(c1)N(Cc1ccc(F)cc1)N=C(C(=O)N1CCC(C)CC1)S2(=O)=O`: 1060 s.
In the case of `CC1CCN(C(=O)c2cc3c(s2)CCC(C(=O)O)C3)CC1` (centres undefined) it was 580 s.
In the case of `Fc1ccc(OCc2cn(C3CN(Cc4ccc(F)cc4F)C3)nn2)cc1` it was 703 s; in that of `Cc1ccc(Cl)cc1NC(=O)N1CCC(CC(=O)N2CCCCC2)CC1`, 801 s; in that of `CCOC(=O)c1ccc2nc(C(F)(F)F)nc(N3CCc4ccccc4C3)c2c1`, 1200 s.
Compound `Cc1nn(Cc2nc(-c3ccc(NC(=O)C4CCC4)cc3)oc2C)c(C)c1C` registered an RP-LC retention time of 881 s.
In the case of `CCOC(=O)c1cnn(-c2ccc(Cl)nn2)c1C` it was 871 s; in that of `Cc1ccccc1N1CCN(Cc2nc(-c3ccc(N4CCCC(C)C4)nc3)no2)CC1` (centres undefined), 1160 s; in that of `CC(C)c1ccc(S(=O)(=O)c2cnc(N3CCN(C4CCCCC4)CC3)nc2N)cc1`, 767 s.
In the case of `CCc1nc2sc(C(C)C)nn2c1S(=O)(=O)N1CCCC1` it was 945 s; in that of `COc1ccc(CNC(=O)C2=Cc3cccc(OC)c3OC2)cc1OC`, 788 s; in that of `NC(=O)C1CCN(c2cc(-c3nc(-c4ccccc4)no3)c3ccccc3n2)CC1`, 765 s.
Consider `CCOc1ccc(-c2csc(Cc3nc(-c4ccccc4C)no3)n2)cc1`, for which the RP-LC retention time stood at 1310 s.
In the case of `CC(=O)N1CCN(c2nc3c(s2)CC(C(=O)N2CCCCCC2)CC3)CC1` (centres undefined) it was 614 s; in that of `Cn1cc(-c2ccc(F)cc2)cc1C(=O)N1CCOCC1`, 811 s.
Next, `Cc1cccc(C)c1NC(=O)Cn1nc2cc(-c3ccccc3)nc(C)n2c1=O`: 832 s.
For `CCOC(=O)c1ncn2c1[C@@H]1CCCN1C(=O)c1cc(OC)ccc1-2`, the RP-LC retention time amounted to 758 s.
Next, `Cc1ccc(Cl)cc1S(=O)(=O)NCC(=O)N1CCOC(c2ccccc2)C1` (centres undefined): 910 s; `Cc1ccc(C(=O)C2=C(O)C(=O)N(c3ncccn3)C2c2cccc(Cl)c2)o1` (centres undefined): 732 s; `O=C(NCCc1ccccc1)N1CCN(c2cc(-c3ccncc3)[nH]n2)CC1`: 607 s.
In the case of `CCCc1nc(C(C)(C)O)c(C(=O)O)n1Cc1ccc(-c2ccccc2-c2nn[nH]n2)cc1` it was 687 s; in that of `Cc1ccc(S(=O)(=O)N2CCC(CC(=O)NCCN(C)Cc3ccccc3)CC2)cc1`, 683 s.
In the case of `Cn1cccc1C(=O)N1CCCCC1c1nncn1Cc1ccccc1` (centres undefined) it was 745 s; in that of `Cc1noc(/C=C\c2ccc(S(=O)(=O)N3CCN(c4ccccn4)CC3)cc2)c1NC(=O)C1CC1`, 661 s; in that of `CCN1C(=O)c2cc(C(=O)NCc3ccccc3C)nn2CC1(C)C(=O)NC1CCCC1` (centres undefined), 884 s.
On to `CCn1nc(CNC(=O)c2cnccn2)c2ccccc21`, for which the RP-LC retention time is 718 s.
Next, `Cc1ccc(-c2nnc3ccc(SCC(=O)OCc4ccccc4)nn23)cc1`: 840 s.
Next, `CCCNc1cc(N2CCC(CCC(=O)N3CCN(c4ccccc4)CC3)CC2)ncn1`: 603 s.
In the case of `O=C1CC(c2noc(-c3ccccc3)n2)CN1c1ccccc1` (centres undefined) it was 921 s; in that of `CCN1CCN(c2nc(F)c3c(c2F)S(=O)(=O)CCN3Cc2ccccc2)CC1`, 682 s.
Regarding `Cc1noc(C2CN(C(=O)Nc3cccc(C)c3C)CC23CCOCC3)n1` (centres undefined), the RP-LC retention time stood at 715 s.
Next, `CCCOC(=O)c1cnc2nc(C)ccc2c1NCc1ccc(OC)cc1`: 750 s; `CNC(=O)N1CC(c2nc(-c3ccccc3)no2)C2(CCOCC2)C1` (centres undefined): 679 s; `CCc1nc(-c2csc(S(=O)(=O)N3CCC(C(=O)NCc4cccnc4)CC3)c2)no1`: 645 s.
On to `COc1ccc(CNC(=O)C2CCCN(S(=O)(=O)c3cc(-c4noc(C)n4)cs3)C2)cc1` (centres undefined), for which the RP-LC retention time came out at 1040 s.
In the case of `CC(C)(C)OC(=O)Cn1cnc2c(-c3ccc(F)cc3)csc2c1=O` it was 709 s; in that of `COc1ccccc1NC(=O)C(C)C1CCN(C(=O)Nc2ccc(Cl)cc2)CC1` (centres undefined), 938 s.
Next, `CCCS(=O)(=O)N1CCC2(CC1)C(OC)CN2c1cccc(F)c1` (centres undefined): 1040 s; `CCOc1ccc(NC(=O)Nc2nccn(-c3ccccc3OC)c2=O)cc1`: 935 s; `O=C(CCc1csc(NC(=O)Nc2ccccc2)n1)Nc1nc2ccccc2s1`: 864 s.
With `O=C1C(OC2CCN(S(=O)(=O)c3ccc(C(F)(F)F)cc3)CC2)CCN1CC1CC1` (centres undefined), the RP-LC retention time was determined as 925 s.
Next, `CCOC(=O)COc1cc(-c2ccccc2)nc2ccc(NC(=O)C3CC3)cc12`: 738 s; `CC(C)N1CCN(S(=O)(=O)c2cc(-c3nnc(C4CC4)o3)co2)CC1`: 599 s; `O=C(NCCc1ccccc1)Nc1ccccc1NC(=O)c1ccsc1`: 796 s.
Next, `CC(C)n1c(-c2cccc(C(=O)NCCN3CCCCC3)c2)nc2cccnc21`: 599 s.
`CC1=C(c2ccc(F)cc2)S(=O)(=O)N=C1N1CCCN(C(=O)C(C)C)CC1` displayed an RP-LC retention time of 751 s.
In the case of `CCN(CC)c1ccc(Nc2nc(-c3ccc(F)c(C)c3)cs2)cc1` it was 834 s; in that of `Cc1ccc(S(=O)Cc2ccc(C(=O)N3CCN(c4ccccn4)CC3)o2)cc1` (centres undefined), 587 s; in that of `O=C(c1ccc(F)cc1)N1CCC2(CC1)OCC(C(=O)N1CCCC1)N2C(=O)c1cccc(F)c1` (centres undefined), 715 s.
In the case of `Cn1cc(S(=O)(=O)N2CCC(C(=O)NCc3ccc(F)cc3)CC2)cc1C(=O)N1CCCC1` it was 722 s; in that of `CN(CCCNC(=O)C1CCCN(c2ncnc3c2nc2n3CCCCC2)C1)Cc1ccccc1` (centres undefined), 616 s.
Consider `O=C(Cn1nc2n(c1=O)CCCC2)Nc1ccc2c(c1)OCCO2`, for which the RP-LC retention time amounted to 635 s.
In the case of `O=S(=O)(Cc1ccccc1)N1CCC(Cc2nncn2-c2ccccc2)C1` (centres undefined) it was 729 s.
As for `CC(NC(=O)Cn1cc(C(=O)C2CC2)c2ccccc21)c1ccc2c(c1)OCCCO2` (centres undefined), the RP-LC retention time came out at 866 s.
In the case of `CC(=O)Nc1ccc(S(=O)(=O)N2CCC(C(=O)N3CCN(c4ncccn4)CC3)CC2)cc1` it was 666 s; in that of `CCOc1ccccc1C(=O)Nc1ccc2c(c1)N(CCOC)CCC2`, 1060 s.
Next, `CCCNC(=O)C1CCCN(c2ccc(SCC(=O)Nc3ccc(C(F)(F)F)cc3)nn2)C1` (centres undefined): 690 s; `COc1cccc(-c2nc(Cc3nc(-c4ccccc4OC)oc3C)no2)c1`: 1030 s; `Cc1cc(C)n(C(=O)COc2ccc(Cl)cc2C)n1`: 1160 s.
On to `COc1ccc(NC(=O)N2CCCC(C)(C(=O)NCc3ccccc3)C2)cc1OC` (centres undefined), for which the RP-LC retention time amounted to 846 s.
For `Cc1cnn(Cc2c(C(=O)N3CCc4nn(C)c(=O)n4CC3)noc2C)c1`, the RP-LC retention time was determined as 602 s.
`O=C(Cc1csc(NC(=O)C2CC2)n1)NCc1ccccn1` showed an RP-LC retention time of 519 s.
Next, `Cc1ccc(NC(=O)Nc2ccc3nncn3c2)c(C)c1`: 747 s.
Next, `CCc1nn2c(CNC(=O)c3ccccc3Br)c(-c3ccccc3)nc2s1`: 903 s; `O=C(c1cccs1)N1CCC(Cn2c(C(F)(F)F)nc3ccccc32)CC1`: 819 s; `Cc1ccc(C(=O)N2CCC(c3nc(-c4ccncc4)n[nH]3)CC2)s1`: 597 s.
`CCc1ccc(-c2nc(-c3ccc4oc(C)nc4c3)no2)cc1` yielded an RP-LC retention time of 1280 s.
Next, `Cc1ccc(C(C)NC(=O)Cn2ccc3c(C)nn(C)c3c2=O)cc1C` (centres undefined): 784 s.
With `Cc1ccc(-c2ccc(N3CCCC(C(=O)Nc4ccc5c(c4)OCO5)C3)nn2)cc1` (centres undefined), the RP-LC retention time came out at 753 s.
Next, `Cc1nn2c(CNS(=O)(=O)Cc3cccc(Cl)c3)c(-c3ccccc3)nc2s1`: 978 s.
